Consider one compound from US20230322745A1, “FUSED TRICYCLIC DERIVATIVE AND PHARMACEUTICAL APPLICATION THEREOF” (CHIA TAI TIANQING PHARMACEUTICAL GROUP CO., LTD., priority 2020, published 2023).

As a reminder, the IC50 is the concentration that gives 50% inhibition. Usually EC50 stands for the concentration at which the effect is half-maximal.

One series concerns the target M3 receptor (Homo sapiens (Human), UniProt P20309). As to the kind of experiment: M3 receptor affinity test (3H-NMS competition). Format: binding. The settings on record: read-out: IC50, activity against the M3 receptor in vitro. Here is the method:
M3 receptor is a G protein-coupled receptor. In this experiment, the activity of test compounds against the M3 receptor in vitro was assayed by the competition of radioisotope labeled NMS and non-isotope labeled test compounds for an M3 binding site.
(§1) The experiment was performed by a radioisotope affinity assay. The M3 receptor membrane protein was prepared at 10 μg/mL by Biology Department of WuXi AppTec, and compounds were serially diluted in a 2.5-fold gradient in DMSO to obtain 10 concentrations. Radioisotope 3H-NMS was prepared at 0.2 nM in an assay buffer (10 mM HEPES, 1 mM MgCl2, pH 7.40). In formal testing, the experimental system comprising 1 of the test compound, 100 μL of M3 receptor membrane protein and 100 μL of radioisotope was shaken in a shaker at 300 RPM for 2 h at room temperature. A GF/C plate (Perkin Elmer, Cat No. 6055690) was prefoamed with 0.3% PEI, and the membrane proteins in the reaction solution were collected by filtration onto the GF/C plate. The signal values were read by a Perkin Elmer Microbeta2 instrument and the inhibition rate for each concentration point was shown as a percentage.

Series [1] can be described thus: Pharmacokinetic evaluation in SD rats. The class given is in vivo. Conditions: male, rat, plasma. As for the experimental part:
To test pharmacokinetics of test compounds in SD rats
SD rats (male, 200-250 g, 7-9 weeks old, Beijing Vital River Laboratory Animal Technology Co., Ltd.)
A formulation containing 10% aqueous HPβCD solution as a vehicle was administered by intravenous injection (2 mpk), and a formulation containing 10% aqueous HPβCD solution as a vehicle was administered by intra-tracheal administration (5 mpk) with a nebulizer needle. Before the animal experiment, all animals were fed normally; and all animals were given free access to water. Blood collection time points were as follows: intravenous administration group: 0.083 h, 0.25 h, 0.5 h, 1 h, 2 h, 4 h, 8 h, and 24 h; nebulizer needle administration group: 0.083 h, 0.25 h, 0.5 h, 1 h, 2 h, 4 h, 8 h, and 24 h.
Whole blood samples (0.25 mL) were collected via the jugular vein (or other suitable collection site) at prescribed time points, and all blood samples were added to labeled plastic centrifuge tubes containing a K2-EDTA anticoagulant. After blood collection, plasma was separated by centrifugation and placed in dry ice rapidly, and the samples were stored at low temperature. All samples were analyzed by LC-MS/MS with a limit of detection of 4 nM. The mean concentration of plasma was processed using a non-compartmental model of the pharmacokinetic software WinNonlin™ Version 6.3 (Pharsight, Mountain View, CA), and pharmacokinetic parameters were calculated by a linear log-trapezoidal method.

The target in a further series is M2 receptor (Homo sapiens (Human), UniProt P08172). The experiment in a line: M2 receptor affinity test (3H-NMS competition). Format: binding. Here is the method:
M2 receptor is a G protein-coupled receptor. In this experiment, the activity of test compounds against the M2 receptor in vitro was assayed by the competition of radioisotope labeled NMS and non-isotope labeled test compounds for an M2 binding site.
as §1, with “The M2 receptor membrane” for “The experiment was performed by a radioisotope affinity assay. The M3 receptor membrane”, “prepared at 100 μg/mL by” for “prepared at 10 μg/mL by”, “comprising 1 μL of the” for “comprising 1 of the”, “μL of M2 receptor membrane” for “μL of M3 receptor membrane”

In series [2] the target is β1 receptor (cells expressing human ADRB1 gene) (Homo sapiens (Human), UniProt P08588). As to the kind of experiment: Agonistic effect on β1 receptor by HTRF cAMP method. Format: cell-based. Here is the method: β1 receptor is a G protein-coupled receptor, which is mainly coupled with Gs protein, and can activate adenylate cyclase activity through the Gs protein after being activated by binding to the ligand, thereby increasing the level of intracellular cAMP. In this experiment, the agonistic activity of the compounds against the β1 receptor in vitro was assayed by the cAMP kit.
Chain of β1 receptor (cells expressing human ADRB1 gene) (P08588 whole entry): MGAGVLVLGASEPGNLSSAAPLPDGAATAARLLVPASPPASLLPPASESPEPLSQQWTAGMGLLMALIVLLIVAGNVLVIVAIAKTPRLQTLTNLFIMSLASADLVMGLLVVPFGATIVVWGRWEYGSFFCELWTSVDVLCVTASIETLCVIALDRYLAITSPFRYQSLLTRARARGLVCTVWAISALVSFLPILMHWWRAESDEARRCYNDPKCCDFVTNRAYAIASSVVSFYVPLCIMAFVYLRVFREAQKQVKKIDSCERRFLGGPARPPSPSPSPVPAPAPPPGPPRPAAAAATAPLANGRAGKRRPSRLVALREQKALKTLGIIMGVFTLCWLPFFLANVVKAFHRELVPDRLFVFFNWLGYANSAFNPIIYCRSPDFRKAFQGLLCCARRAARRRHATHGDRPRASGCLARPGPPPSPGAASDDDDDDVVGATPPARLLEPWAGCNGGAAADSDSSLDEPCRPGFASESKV
(§2) β1 cells (expressing human ADRB1 gene) from ICE Bioscience Inc. were grown under standard conditions. The cells were collected and diluted with 1× Stimulation Buffer, and 9 μL of the cell dilution was added to a white low-volume 384-well plate with 4000 cells seeded in each well. Compounds were serially diluted in DMSO in a 5-fold gradient to obtain 10 concentrations. Before testing, compounds that had been serially diluted in DMSO were subjected to 100-fold dilution with 1× Stimulation Buffer to obtain compound working solutions. The concentration of the vehicle DMSO was 0.1%. Eu-cAMP and ULight™-anti-cAMP were diluted to the working concentration with Detection buffer. 5 μL of Eu-cAMP diluent and 5 μL of ULight™-anti-cAMP diluent were sequentially added into corresponding experiment wells. After 1 h of incubation at room temperature, readings at 665 nm and 620 nm were measured under the excitation wavelength of 330 nm using a Biotek microplate reader. The activity of the compounds was obtained by plotting through Ratio (665/620) against the concentration of the compounds, fitting the curve by a nonlinear regression method using GraphPad Prism 7 software and calculating EC50.
For orientation: TR-FRET usually uses a lanthanide donor and a delayed reading to cut background.

The target in series [3] is β2 receptor (cells expressing human ADRB2 gene) (Homo sapiens (Human), UniProt P07550). The experiment in a line: Agonistic effect on β2 receptor by HTRF cAMP method. The class given is cell-based. Conditions: HTRF cAMP, 1 h incubation at room temperature; read-out: EC50, agonistic activity against the β2 receptor in vitro. Here is the method: β2 receptor is a G protein-coupled receptor, which is mainly coupled with Gs protein, and can activate adenylate cyclase activity through the Gs protein after being activated by binding to the ligand, thereby increasing the level of intracellular cAMP. In this experiment, the agonistic activity of the compounds against the β2 receptor in vitro was assayed by the cAMP kit.
Chain of β2 receptor (cells expressing human ADRB2 gene) (P07550 whole entry): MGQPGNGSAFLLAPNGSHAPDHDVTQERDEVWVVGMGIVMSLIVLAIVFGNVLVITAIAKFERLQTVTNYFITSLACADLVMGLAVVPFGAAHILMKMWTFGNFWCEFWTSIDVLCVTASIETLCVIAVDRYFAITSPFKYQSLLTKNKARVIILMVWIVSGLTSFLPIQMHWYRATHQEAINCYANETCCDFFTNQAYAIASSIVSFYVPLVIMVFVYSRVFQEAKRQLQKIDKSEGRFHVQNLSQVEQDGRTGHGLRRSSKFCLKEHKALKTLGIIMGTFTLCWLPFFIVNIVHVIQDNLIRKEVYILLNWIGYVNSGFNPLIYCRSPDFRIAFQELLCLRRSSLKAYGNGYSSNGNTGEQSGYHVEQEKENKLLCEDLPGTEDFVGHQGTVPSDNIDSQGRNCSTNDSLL
as §2, with “β2” for “β1”, “ADRB2” for “ADRB1”, “1000” for “4000”

Structures can show the parent of a compound that is named as a salt. Where two headings read alike, the source gives them in different places.

Chain of M3 receptor (P20309 whole entry): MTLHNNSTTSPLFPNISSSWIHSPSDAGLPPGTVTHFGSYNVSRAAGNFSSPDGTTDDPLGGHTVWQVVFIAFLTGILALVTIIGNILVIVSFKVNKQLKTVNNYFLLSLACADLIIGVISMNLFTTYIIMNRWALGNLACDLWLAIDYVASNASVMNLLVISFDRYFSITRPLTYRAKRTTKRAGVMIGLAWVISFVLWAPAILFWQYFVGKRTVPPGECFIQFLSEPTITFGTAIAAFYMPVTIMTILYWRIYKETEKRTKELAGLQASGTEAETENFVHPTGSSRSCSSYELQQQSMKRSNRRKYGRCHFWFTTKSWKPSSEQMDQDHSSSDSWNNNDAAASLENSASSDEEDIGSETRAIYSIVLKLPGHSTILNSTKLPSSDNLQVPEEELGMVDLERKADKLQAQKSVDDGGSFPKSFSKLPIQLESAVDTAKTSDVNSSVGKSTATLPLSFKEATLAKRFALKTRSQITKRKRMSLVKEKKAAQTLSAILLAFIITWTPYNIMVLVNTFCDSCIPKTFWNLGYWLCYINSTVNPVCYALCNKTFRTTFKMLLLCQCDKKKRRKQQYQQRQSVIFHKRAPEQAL
Chain of M2 receptor (P08172 whole entry): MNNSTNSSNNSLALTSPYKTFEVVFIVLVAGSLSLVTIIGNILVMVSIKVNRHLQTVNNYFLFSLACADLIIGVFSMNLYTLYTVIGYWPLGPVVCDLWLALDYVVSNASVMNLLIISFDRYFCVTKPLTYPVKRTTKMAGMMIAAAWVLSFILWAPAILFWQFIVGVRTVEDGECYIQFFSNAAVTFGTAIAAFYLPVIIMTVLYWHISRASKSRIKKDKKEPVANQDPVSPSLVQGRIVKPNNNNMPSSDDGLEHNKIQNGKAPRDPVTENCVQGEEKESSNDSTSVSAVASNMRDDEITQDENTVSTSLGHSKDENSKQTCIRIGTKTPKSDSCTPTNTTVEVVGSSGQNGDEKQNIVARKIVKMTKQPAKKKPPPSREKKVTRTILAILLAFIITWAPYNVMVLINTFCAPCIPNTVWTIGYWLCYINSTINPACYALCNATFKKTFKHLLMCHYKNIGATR

Take `CN(CCCn1nnc2cc(CNC[C@H](O)c3ccc(O)c4[nH]c(=O)ccc34)c3c(c21)CCC3)[C@H]1CC[C@H](OC(=O)C(O)(c2cccs2)c2cccs2)CC1` [Trifluoroacetate salt of compound 1]: the IC50 at M3 receptor came to 0.384 nM; at M2 receptor, 0.062 nM. In addition, the clearance in series [1] (2 mg/kg, intravenous injection 2 mpk, 10% aqueous HPβCD, read-out: Clearance rate for administration by intravenous injection) amounted to 62.8 mL/min/kg. Also, the AUC in series [1] (2 mg/kg, intravenous injection 2 mpk, 10% aqueous HPβCD, read-out: Concentration integration AUC for administration by intravenous injection) is 0.681 µM·h; in series [1] (inhaled or intranasal, 5 mg/kg, intra-tracheal 5 mpk, 10% aqueous HPβCD, read-out: Concentration integration AUC for intra-tracheal administration with a nebulizer needle), 2.61 µM·h. The bioavailability in series [1] (inhaled or intranasal, 5 mg/kg, intra-tracheal 5 mpk vs intravenous 2 mpk, read-out: Bioavailability F for intra-tracheal administration with a nebulizer needle) amounted to 153%. Moreover, the half-life in series [1] (inhaled or intranasal, 5 mg/kg, intra-tracheal 5 mpk, 10% aqueous HPβCD, read-out: Half life T1/2 for intra-tracheal administration with a nebulizer needle (converted)) was 1.38 h. For the same compound, the 50% effective concentration (EC50) is 84.5 nM in series [2] and 3.47 nM in series [3].
